Assay results: ChEMBL document CHEMBL1146126 (Bioorg Med Chem Lett, 2006)

What was measured:
[1] = biological target: T1, Prostaglandin E2 receptor EP4 subtype (Rattus norvegicus, UniProt P43114); experiment: Binding affinity to rat EP4 receptor expressed in HEK293 cells; format: cell-based
[2] = biological target: T1, Prostaglandin E2 receptor EP4 subtype; experiment: Activity at rat EP4 transfected in HEK293 cells by cAMP accumulation; format: functional, cell-based
[3] = biological target: Prostaglandin E2 receptor EP4 subtype (Rattus norvegicus) (UniProt P43114); experiment: Activity at rat EP4 transfected in HEK293 cells by cAMP accumulation compared to PGE2; format: functional, cell-based
[4] = biological target: Prostaglandin E2 receptor EP2 subtype (Rattus norvegicus, UniProt Q62928); experiment: Binding affinity to rat EP2 receptor expressed in HEK293 cells; format: cell-based
[5] = biological target: T2, Prostaglandin E2 receptor EP3 subtype (Homo sapiens, UniProt P43115); experiment: Binding affinity to human EP3 receptor expressed in HEK293 cells; format: cell-based
T2 sequence (P43115 whole entry): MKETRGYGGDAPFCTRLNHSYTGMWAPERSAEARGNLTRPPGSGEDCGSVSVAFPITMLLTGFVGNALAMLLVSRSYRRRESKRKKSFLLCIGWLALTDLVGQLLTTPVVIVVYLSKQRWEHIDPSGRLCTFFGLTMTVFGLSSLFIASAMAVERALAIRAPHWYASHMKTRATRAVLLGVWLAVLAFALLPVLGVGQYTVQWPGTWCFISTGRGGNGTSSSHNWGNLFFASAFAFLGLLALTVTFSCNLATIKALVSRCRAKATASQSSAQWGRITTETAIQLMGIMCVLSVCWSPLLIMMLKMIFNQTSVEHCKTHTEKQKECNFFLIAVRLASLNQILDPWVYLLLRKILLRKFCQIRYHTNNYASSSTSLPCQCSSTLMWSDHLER

[6] = biological target: T3, Prostaglandin E2 receptor EP1 subtype (Homo sapiens, UniProt P34995); experiment: Binding affinity to human EP1 receptor expressed in HEK293 cells; format: cell-based
T3 sequence (P34995 whole entry): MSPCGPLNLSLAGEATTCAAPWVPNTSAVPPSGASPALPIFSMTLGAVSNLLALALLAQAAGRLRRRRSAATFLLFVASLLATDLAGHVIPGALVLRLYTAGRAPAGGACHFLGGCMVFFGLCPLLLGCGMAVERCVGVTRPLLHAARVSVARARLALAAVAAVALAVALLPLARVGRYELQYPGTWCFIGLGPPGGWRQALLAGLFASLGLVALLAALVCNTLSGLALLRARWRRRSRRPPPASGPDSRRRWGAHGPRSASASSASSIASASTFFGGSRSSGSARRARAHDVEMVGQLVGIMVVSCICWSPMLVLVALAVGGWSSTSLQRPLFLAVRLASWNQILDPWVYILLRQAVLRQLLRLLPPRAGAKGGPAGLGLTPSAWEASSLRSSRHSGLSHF

[7] = Half life in iv dosed Sprague-Dawley rat; format: ADME, organism-based; details: in vivo
[8] = Plasma clearance in iv dosed Sprague-Dawley rat
[9] = Oral bioavailability in Sprague-Dawley rat; format: ADME, organism-based; details: in vivo
[10] = Half life in po dosed Sprague-Dawley rat; format: ADME, organism-based; details: in vivo
[11] = Half life in sc dosed Sprague-Dawley rat; format: ADME, organism-based; details: in vivo
Rattus norvegicus [12] = experiment: Volume distribution in sc dosed Sprague-Dawley rat; format: ADME, organism-based; details: in vivo
Rattus norvegicus [13] = experiment: Increase in total bone content at 30 mg/kg, sc 28 days post dose in ovariectomized osteopenic rat; format: functional; details: route subcutaneous
Rattus norvegicus [14] = experiment: Increase in cortical content at 30 mg/kg, sc 28 days post dose in ovariectomized osteopenic rat; format: functional; details: route subcutaneous
Rattus norvegicus [15] = experiment: Increase in cortical content at 10 mg/kg, sc 28 days post dose in ovariectomized osteopenic rat; format: functional; details: route subcutaneous
Rattus norvegicus [16] = experiment: Increase in total bone density at 10 mg/kg, sc 28 days post dose in ovariectomized osteopenic rat; format: functional; details: route subcutaneous
Rattus norvegicus [17] = experiment: Increase in cortical thickness at 10 mg/kg, sc 28 days post dose in ovariectomized osteopenic rat; format: functional; details: route subcutaneous
Rattus norvegicus [18] = experiment: Increase in cortical area at 30 mg/kg, sc 28 days post dose in ovariectomized osteopenic rat; format: functional; details: route subcutaneous
Rattus norvegicus [19] = experiment: Increase in cortical area at 10 mg/kg, sc 28 days post dose in ovariectomized osteopenic rat; format: functional; details: route subcutaneous
Rattus norvegicus [20] = experiment: Increase in cortical thickness at 30 mg/kg, sc 28 days post dose in ovariectomized osteopenic rat; format: functional; details: route subcutaneous
Rattus norvegicus [21] = experiment: Increase in total bone content at 10 mg/kg, sc 28 days post dose in ovariectomized osteopenic rat; format: functional; details: route subcutaneous
Rattus norvegicus [22] = experiment: Increase in total bone density at 30 mg/kg, sc 28 days post dose in ovariectomized osteopenic rat; format: functional; details: route subcutaneous

Sequence of Prostaglandin E2 receptor EP2 subtype (Q62928 whole entry): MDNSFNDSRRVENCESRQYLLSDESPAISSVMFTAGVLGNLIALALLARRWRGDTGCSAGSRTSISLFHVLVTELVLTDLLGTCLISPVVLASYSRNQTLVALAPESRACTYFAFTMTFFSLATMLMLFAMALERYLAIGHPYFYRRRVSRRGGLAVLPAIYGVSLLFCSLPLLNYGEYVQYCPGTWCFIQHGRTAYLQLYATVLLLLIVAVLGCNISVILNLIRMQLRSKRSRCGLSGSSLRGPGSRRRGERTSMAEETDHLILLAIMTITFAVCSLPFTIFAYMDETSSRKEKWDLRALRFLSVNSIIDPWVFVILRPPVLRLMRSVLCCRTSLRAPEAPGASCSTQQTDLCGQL
T1 sequence (P43114 whole entry): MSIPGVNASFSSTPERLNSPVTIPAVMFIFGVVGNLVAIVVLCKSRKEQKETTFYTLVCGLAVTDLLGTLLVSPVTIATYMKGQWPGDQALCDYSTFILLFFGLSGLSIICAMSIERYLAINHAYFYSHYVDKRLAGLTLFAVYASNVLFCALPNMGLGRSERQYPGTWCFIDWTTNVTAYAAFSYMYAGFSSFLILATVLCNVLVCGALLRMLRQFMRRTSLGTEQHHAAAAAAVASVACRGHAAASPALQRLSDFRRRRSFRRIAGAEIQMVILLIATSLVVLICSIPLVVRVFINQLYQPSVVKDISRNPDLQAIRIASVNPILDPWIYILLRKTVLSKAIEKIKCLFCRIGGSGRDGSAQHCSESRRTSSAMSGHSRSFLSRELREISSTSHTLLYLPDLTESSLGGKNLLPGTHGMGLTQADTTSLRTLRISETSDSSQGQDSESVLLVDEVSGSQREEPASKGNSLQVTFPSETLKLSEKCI
Sequence of Prostaglandin E2 receptor EP4 subtype (Rattus norvegicus) (P43114 whole entry): as above

| SMILES | IC50 [1] | EC50 [2] | Activity [3] | IC50 [4] | other results |
| --- | --- | --- | --- | --- | --- |
| O=C(O)c1ccc(CCCN2C(=O)CC[C@@H]2CCC(O)Cc2ccccc2)s1 (stereo not given in full) | 0.021 µM | 0.0017 µM | 88% | 0.69 µM |  |
| O=C(O)c1ccc(CCCN2C(=O)CCC2CCC(O)Cc2cccc(Oc3ccccc3)c2)cc1 (stereo not given) | 0.22 µM |  |  | > 3.2 µM |  |
| O=C(O)c1ccc(CCCN2C(=O)CC[C@@H]2CCC(O)Cc2cccc(-c3ccccc3)c2)s1 (stereo not given in full) | 0.05 µM | 0.203 µM | 95% | 0.135 µM | IC50 [5]: 20 µM; IC50 [6]: 18.6 µM |
| O=C(O)CCCCCCN1C(=O)CC[C@@H]1CCC(O)Cc1ccccc1 (stereo not given in full) | 0.054 µM | 0.0325 µM | 114% | > 3.2 µM | IC50 [5]: > 3.2 µM; IC50 [6]: > 3.2 µM; half-life [7]: 6 min; clearance [8]: 6.06 L/h/kg; bioavailability [9]: 21%; half-life [10]: 27 min; half-life [11]: 21 min; Vdss (Rattus norvegicus [12]): 0.4 L/kg |
| O=C(O)c1ccc(CCCN2C(=O)CC[C@@H]2CCC(O)Cc2cccc(F)c2)s1 (stereo not given in full) | 0.017 µM | 0.0024 µM | 97% | 0.64 µM |  |
| O=C(O)c1ccc(CCCN2C(=O)CC[C@@H]2CCC(O)Cc2ccc(Cl)cc2)s1 (stereo not given in full) | 0.08 µM | 0.04 µM | 90% | 0.086 µM | IC50 [5]: > 3.2 µM; IC50 [6]: > 3.2 µM |
| O=C(O)CCCCCCN1C(=O)CC[C@@H]1CC[C@@H](O)Cc1cccc(-c2ccccc2)c1 | 0.337 µM | 0.195 µM | 101% | > 3.2 µM |  |
| N#Cc1cccc(C[C@H](O)CC[C@H]2CCC(=O)N2CCCCCCC(=O)O)c1 | 0.388 µM | 0.096 µM | 104% | > 3.2 µM |  |
| COCCc1cccc(C[C@H](O)CC[C@H]2CCC(=O)N2CCCCCCC(=O)O)c1 | 0.21 µM | 0.092 µM | 82% | > 3.2 µM |  |
| O=C(O)c1ccc(CCCN2C(=O)CC[C@@H]2CC[C@@H](O)Cc2cccc(C(F)(F)F)c2)s1 |  |  | 102% | 0.483 µM | half-life [7]: 12 min; clearance [8]: 4.2 L/h/kg; bioavailability [9]: 1%; half-life [10]: 52.2 min; half-life [11]: 18 min; Vdss (Rattus norvegicus [12]): 0.49 L/kg |
| O=C(O)CCCCCCN1C(=O)CC[C@@H]1CC[C@@H](O)Cc1cccc(OC(F)(F)F)c1 | 0.059 µM | 0.05 µM | 78% | > 3.2 µM |  |
| O=C(O)c1ccc(CCCN2C(=O)CCC2CCC(O)Cc2ccccc2)cc1 (stereo not given) | 0.25 µM |  |  | > 3.2 µM | IC50 [5]: > 3.2 µM; IC50 [6]: > 3.2 µM |
| O=C(O)c1ccc(CCCN2C(=O)CCC2CCC(O)Cc2cccc(F)c2)cc1 (stereo not given) | 0.126 µM |  |  | > 3.2 µM |  |
| O=C(O)c1ccc(CCCN2C(=O)CCC2CCC(O)Cc2cccc(Cl)c2)cc1 (stereo not given) | 0.042 µM | 0.425 µM | 106% | > 3.2 µM | IC50 [5]: > 3.2 µM; IC50 [6]: > 3.2 µM |
| O=C(O)CCCCCCN1C(=O)CC[C@@H]1CCC(O)Cc1cccc(Oc2ccccc2)c1 (stereo not given in full) |  |  |  | > 3.2 µM | IC50 [5]: > 3.2 µM; IC50 [6]: > 3.2 µM |
| O=C(O)c1ccc(CCCN2C(=O)CC[C@@H]2CC[C@@H](O)Cc2ccc(F)cc2)s1 | 0.07 µM | 0.022 µM | 70% | 1.2 µM |  |
| O=C(O)c1ccc(CCCN2C(=O)CCC2CCC(O)Cc2ccc(F)cc2)cc1 (stereo not given) | 2.77 µM |  |  | > 3.2 µM | IC50 [5]: > 3.2 µM; IC50 [6]: > 3.2 µM |
| O=C(O)CCCCCCN1C(=O)CC[C@@H]1CC[C@@H](O)CCc1ccccc1 | 2.71 µM |  |  | > 3.2 µM |  |
| COCc1cccc(C[C@H](O)CC[C@H]2CCC(=O)N2CCCCCCC(=O)O)c1 | 0.062 µM | 0.018 µM | 89% | > 3.2 µM | IC50 [5]: > 2 µM; IC50 [6]: > 3.2 µM |
| O=C(O)c1ccc(CCCN2C(=O)CC[C@@H]2CCC(O)Cc2ccccc2-c2ccccc2)s1 (stereo not given in full) | 1.6 µM |  |  | 0.125 µM |  |
| O=C(O)c1ccc(CCCN2C(=O)CC[C@@H]2CCC(O)Cc2ccc3ccccc3c2)s1 (stereo not given in full) | 0.065 µM | 0.5 µM | 73% | > 3.2 µM |  |
| O=C(O)c1ccc(CCCN2C(=O)CC[C@@H]2CC[C@@H](O)Cc2cccc(Cl)c2)s1 | 0.0011 µM | 0.0006 µM | 70% | 0.188 µM |  |
| O=C(O)c1ccc(CCCN2C(=O)CC[C@@H]2CC[C@@H](O)Cc2cccc(C(F)(F)F)c2)cc1 | 0.07 µM | 0.105 µM | 105% | > 3.2 µM |  |
| O=C(O)CCCCCCN1C(=O)CCC1CCC(O)Cc1cccc(Cl)c1 (stereo not given) | 0.022 µM | 0.0088 µM | 89% | > 3.2 µM |  |
| O=C(O)c1ccc(CCCN2C(=O)CCC2CCC(O)Cc2cccc(-c3ccccc3)c2)cc1 (stereo not given) | 0.047 µM | 0.44 µM | 97% | > 3.2 µM |  |
| O=C(O)CCCCCCN1C(=O)CCC1CCC(O)CCc1ccccc1 (stereo not given) | > 3.2 µM |  |  | > 3.2 µM |  |
| CCc1ccc(CC(O)CC[C@H]2CCC(=O)N2CCCc2ccc(C(=O)O)s2)cc1 (stereo not given in full) | 0.14 µM | 0.275 µM | 82% | 1.2 µM |  |
| O=C(O)CCCCCCN1C(=O)CC[C@@H]1CC[C@@H](O)Cc1cccc(C(F)(F)F)c1 |  | 0.013 µM | 75% | > 3.2 µM | Activity (Rattus norvegicus [13]): 32.53%; half-life [7]: 12 min; Activity (Rattus norvegicus [14]): 57.7%; Activity (Rattus norvegicus [15]): 29.78%; Activity (Rattus norvegicus [16]): 18.73%; Activity (Rattus norvegicus [17]): 34.12%; Activity (Rattus norvegicus [18]): 66.92%; Activity (Rattus norvegicus [19]): 21.93%; clearance [8]: 4.26 L/h/kg; Activity (Rattus norvegicus [20]): 124.19%; bioavailability [9]: 17%; half-life [10]: 25.2 min; half-life [11]: 25.8 min; Activity (Rattus norvegicus [21]): 15.34%; Vdss (Rattus norvegicus [12]): 0.46 L/kg; Activity (Rattus norvegicus [22]): 23.7% |
| O=C(O)CCCCCCN1C(=O)CC[C@@H]1CC[C@@H](O)Cc1cccc(O)c1 | 1.2 µM | 0.17 µM | 100% | > 3.2 µM |  |
